Results from patent US6969702B2, “Compounds and methods for increasing neurogenesis” (priority 2002, dated 2005).
Marks after values point to notes of the source that are not given here. Bridge positions count the residues as written; N and C are the ends. Peptide text beside a SMILES is read from it.

Key:
[1] = system: mouse adult neural stem cells; experiment: ATP-assay: proliferation (ATP levels) of neurosphere-derived cells; conditions: for Fold Induction ATP: vs vehicle
[2] = system: cAMP activation in mouse adult neural stem cells; experiment: cAMP detection (HitHunter EFC Cyclic AMP Chemiluminescence Assay); conditions: for Fold Induction cAMP: vs vehicle
[3] = Table 2, 100 nM (cAMP concentration)

COc1ccc(C2CNC(=O)C2)cc1OC1CCCC1 (stereo not shown) [Rolipram, rolipram]
fold induction at 0.1 µM ([1]; Mus musculus, Neural stem cell, 96 h, read-out: Fold Induction ATP): 1.1
ATP (nM ATP/well) ([1]; Table 1, 100 nM, 4 days in culture): 10.4 ± 0.4 nM ATP/well
proliferation of neural stem cells ([1]; cAMP activators, GPCR-independent): increase
fold induction at 0.1 µM ([2]; Mus musculus, Neural stem cell, 0.25 h, read-out: Fold Induction cAMP): 3.8
cAMP (pmol/well) ([2]; Table 1, 100 nM, after 15 minutes): 0.09 ± 0.03 pmol/well

CC[C@H](C)[C@H](NC(=O)[C@H](CO)NC(=O)[C@H](CC(N)=O)NC(=O)[C@H](CC(C)C)NC(=O)[C@H](Cc1ccc(O)cc1)NC(=O)[C@H](CCCCN)NC(=O)[C@H](CCCCN)NC(=O)[C@@H](NC(=O)[C@H](C)NC(=O)[C@H](CCSC)NC(=O)[C@H](CCC(N)=O)NC(=O)[C@H](CCCCN)NC(=O)[C@H](CCCNC(=N)N)NC(=O)[C@H](CC(C)C)NC(=O)[C@H](CCCNC(=N)N)NC(=O)[C@@H](NC(=O)[C@H](Cc1ccc(O)cc1)NC(=O)[C@H](CC(N)=O)NC(=O)[C@H](CC(=O)O)NC(=O)[C@@H](NC(=O)[C@H](Cc1ccccc1)NC(=O)[C@@H](NC(=O)[C@H](C)NC(=O)[C@H](CC(=O)O)NC(=O)[C@H](CO)NC(=O)[C@@H](N)Cc1c[nH]cn1)C(C)C)[C@@H](C)O)[C@@H](C)O)C(C)C)C(=O)N[C@@H](CC(C)C)C(=O)N[C@@H](CC(N)=O)C(N)=O [Vasoactive Intestinal Peptide (Human, Porcine, Rat)]
ATP (nM ATP/well) ([1]; Table 2, 1000 nM, 4 days): 20.6 ± 1.2 nM ATP/well
cAMP (pmol/well) [2, 3]: 0.39 ± 0.12 pmol/well

CSCC[C@H](NC(=O)[C@H](CC(C)C)NC(=O)[C@@H]1CCCN1C(=O)[C@H](Cc1ccc(O)cc1)NC(=O)[C@H](Cc1ccccc1)NC(=O)[C@@H]1CSSC[C@H](NC(=O)[C@@H]2CCCN2C(=O)[C@@H](N)CCCNC(=N)N)C(=O)N2CCC[C@H]2C(=O)N[C@@H](CCC(N)=O)C(=O)N1)C(N)=O [[Cys3,6, Tyr8, Pro9]-Substance P] (H-RPCPQCFYPLM-NH2; disulfide 3-6 (inferred); N-terminus and C-terminus assumed)
ATP (nM ATP/well) ([1]; Table 2, 100 nM, 4 days): 11.2 ± 0.4 nM ATP/well
cAMP (pmol/well) [2, 3]: 0.29 ± 10 pmol/well

CC(C)C[C@H](NC(=O)[C@@H]1CCCN1C(=O)[C@H](CO)NC(=O)[C@H](Cc1ccccc1)NC(=O)CNC(=O)[C@@H]1CCCN1C(=O)[C@@H]1CCCN1C(=O)[C@@H](N)CCCNC(=N)N)C(=O)O [[Des-Arg9, Leu8]-Bradykinin]
ATP (nM ATP/well) ([1]; Table 2, 10 nM, 4 days): 9.8 ± 0.4 nM ATP/well
Fold Induction ATP ([1]; Table 2, 10 nM, 4 days): 1.1* fold
cAMP (pmol/well) ([2]; Table 2, 1 nM (cAMP concentration)): 0.09 ± 0.02 pmol/well
Fold Induction cAMP ([2]; Table 2, 1 nM): 2.6* (1 nM) fold

CCCC[C@H](NC(=O)[C@H](CO)NC(=O)[C@H](CC(N)=O)NC(=O)[C@H](CC(C)C)NC(=O)[C@H](Cc1c[nH]cn1)NC(=O)[C@H](CCCCN)NC(=O)CNC(=O)[C@H](CC(C)C)NC(=O)[C@H](CC(N)=O)NC(=O)[C@H](Cc1c[nH]cn1)NC(=O)[C@H](CCCC)NC(=O)[C@H](CC(C)C)NC(=O)[C@H](CCC(N)=O)NC(=O)[C@@H](NC(=O)[C@H](CCC(=O)O)NC(=O)[C@H](CO)NC(=O)[C@@H](NC(=O)[C@@H](N)CO)C(C)C)[C@@H](C)CC)C(=O)N[C@@H](CCC(=O)O)C(=O)N[C@@H](CCCNC(=N)N)C(=O)N[C@H](C(=O)N[C@@H](CCC(=O)O)C(=O)N[C@@H](Cc1c[nH]c2ccccc12)C(=O)N[C@@H](CC(C)C)C(=O)N[C@@H](CCCNC(=N)N)C(=O)N[C@@H](CCCCN)C(=O)N[C@@H](CCCCN)C(=O)N[C@@H](CC(C)C)C(=O)N[C@@H](CCC(N)=O)C(=O)N[C@@H](CC(=O)O)C(=O)N[C@H](C(=O)N[C@@H](Cc1c[nH]cn1)C(=O)N[C@@H](CC(N)=O)C(=O)N[C@@H](Cc1ccc(O)cc1)C(N)=O)C(C)C)C(C)C [[Nle8,18, Tyr34]-Parathyroid Hormone (1-34) Amide (Human)]
ATP (nM ATP/well) ([1]; Table 2, 1000 nM, 4 days): 23.5 ± 2.7 nM ATP/well
Fold Induction ATP ([1]; Table 2, 1000 nM, 4 days): 1.7** fold
cAMP (pmol/well) ([2]; Table 2, 10 nM (cAMP concentration)): 0.16 ± 0.05 pmol/well
Fold Induction cAMP ([2]; Table 2, 10 nM): 2.6* (10 nM) fold

CC(C)C[C@H](NC(=O)CN(C)C(=O)[C@H](Cc1ccccc1)NC(=O)[C@H](Cc1ccccc1)NC(=O)[C@H](CCC(N)=O)NC(=O)[C@H](CCC(N)=O)NC(=O)[C@@H]1CCCN1C(=O)[C@H](CCCCN)NC(=O)[C@@H]1CCCN1C(=O)[C@@H](N)CCCNC(=N)N)C(=O)N[C@@H](CCS(C)(=O)=O)C(N)=O [[Sar9, Met (0)11]-Substance P]
ATP (nM ATP/well) ([1]; Table 2, 100 nM, 4 days): 39.7 ± 2.1 nM ATP/well
cAMP (pmol/well) [2, 3]: 0.16 ± 0.05 pmol/well
